Measurements taken from US9187428B2, “Substituted dicyanopyridines and use thereof” (Bayer Intellectual Property GmbH, priority 2010, dated 2015).
Counter-ions that a name gives are not always drawn.

Experiments:
Format in all cases: cell-based
adenosine A1 receptor = adenosine A1 receptor (Homo sapiens (Human), UniProt P30542); assay: Indirect determination of adenosine agonism by gene expression (luciferase reporter), A1 cells; details: CHO cells stably transfected with adenosine A1 receptor; 1 μM forskolin; 50% inhibition of luciferase response
adenosine A1 receptor, sequence (P30542 whole entry): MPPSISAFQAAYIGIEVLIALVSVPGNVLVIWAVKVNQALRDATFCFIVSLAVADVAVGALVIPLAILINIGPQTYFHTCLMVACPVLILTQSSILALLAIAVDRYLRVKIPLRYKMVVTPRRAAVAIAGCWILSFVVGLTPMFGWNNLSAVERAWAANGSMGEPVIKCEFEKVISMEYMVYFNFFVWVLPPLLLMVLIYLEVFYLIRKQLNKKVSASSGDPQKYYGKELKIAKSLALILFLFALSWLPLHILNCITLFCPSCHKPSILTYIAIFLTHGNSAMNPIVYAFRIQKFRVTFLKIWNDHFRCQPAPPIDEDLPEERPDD
Description: (§1) B-1. Indirect Determination of the Adenosine Agonism by Way of Gene Expression
(§2) Cells of the CHO (Chinese Hamster Ovary) permanent line are transfected stably with the cDNA for the adenosine receptor subtypes A1, A2a and A2b. The adenosine A1 receptors are coupled to the adenylate cyclase by way of Gi proteins, while the adenosine A2a and A2b receptors are coupled by way of Gs proteins. In correspondence with this, the formation of cAMP in the cell is inhibited or stimulated, respectively. After that, expression of the luciferase is modulated by way of a cAMP-dependent promoter. The luciferase test is optimized, with the aim of high sensitivity and reproducibility, low variance and good suitability for implementation on a robot system, by varying several test parameters, such as cell density, duration of the growth phase and the test incubation, forskolin concentration and medium composition. The following test protocol is used for pharmacologically characterizing cells and for the robot-assisted substance screening:
(§3) The stock cultures are grown, at 37° C. and under 5% CO2, in DMEM/F12 medium containing 10% FCS (fetal calf serum) and in each case split 1:10 after 2-3 days. Test cultures are seeded in 384-well plates with 2000 cells per well and grown at 37° C. for approx. 48 hours. The medium is then replaced with a physiological sodium chloride solution (130 mM sodium chloride, 5 mM potassium chloride, 2 mM calcium chloride, 20 mM HEPES, 1 mM magnesium chloride hexahydrate, 5 mM sodium bicarbonate, pH 7.4). The substances to be tested, which are dissolved in DMSO, are pipetted into the test cultures (maximum final concentration of DMSO in the test mixture: 0.5%) in a dilution series of from 5×10^−11 M to 3×10^−6 M (final concentration). 10 minutes later, forskolin is added to the A1 cells and all the cultures are subsequently incubated at 37° C. for four hours. After that, 35 μl of a solution which is composed of 50% lysis reagent (30 mM disodium hydrogenphosphate, 10% glycerol, 3% TritonX100, 25 mM TrisHCl, 2 mM dithiotreitol (DTT), pH 7.8) and 50% luciferase substrate solution (2.5 mM ATP, 0.5 mM luciferin, 0.1 mM coenzyme A, 10 mM tricine, 1.35 mM magnesium sulfate, 15 mM DTT, pH 7.8) are added to the test cultures, which are shaken for approx. 1 minute and the luciferase activity is measured using a camera system. The EC50 values are determined, i.e., the concentrations at which 50% of the luciferase response is inhibited in the case of the A1 cell, and, respectively, 50% of the maximum stimulation with the corresponding substance is achieved in the case of the A2b and A2a cells. […] Pharmacol., 357, 1-9 (1998)].
(§4) Table A below lists the EC50 values of representative working examples for the receptor stimulation on adenosine A1, A2a and A2b receptor subtypes: […]

adenosine A2a receptor = adenosine A2a receptor (Homo sapiens (Human), UniProt P29274); assay: Indirect determination of adenosine agonism by gene expression (luciferase reporter), A2a cells; details: CHO cells stably transfected with adenosine A2a receptor, 50% of maximum stimulation
adenosine A2a receptor, sequence (P29274 whole entry): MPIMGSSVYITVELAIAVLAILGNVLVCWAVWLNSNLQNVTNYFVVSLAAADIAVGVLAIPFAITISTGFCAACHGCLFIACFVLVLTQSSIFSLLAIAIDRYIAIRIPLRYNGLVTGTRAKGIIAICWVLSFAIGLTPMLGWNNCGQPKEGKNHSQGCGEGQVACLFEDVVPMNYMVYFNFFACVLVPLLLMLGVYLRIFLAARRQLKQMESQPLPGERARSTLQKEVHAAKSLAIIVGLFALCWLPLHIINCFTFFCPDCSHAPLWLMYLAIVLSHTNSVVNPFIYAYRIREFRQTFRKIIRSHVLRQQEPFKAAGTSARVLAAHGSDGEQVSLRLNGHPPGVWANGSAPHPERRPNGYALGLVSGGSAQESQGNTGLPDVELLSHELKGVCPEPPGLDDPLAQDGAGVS
Description: as §1, §2, §3, §4

adenosine A2b receptor = adenosine A2b receptor (Homo sapiens (Human), UniProt P29275); assay: Indirect determination of adenosine agonism by gene expression (luciferase reporter), A2b cells; details: CHO cells stably transfected with adenosine A2b receptor, 50% of maximum stimulation
adenosine A2b receptor, sequence (P29275 whole entry): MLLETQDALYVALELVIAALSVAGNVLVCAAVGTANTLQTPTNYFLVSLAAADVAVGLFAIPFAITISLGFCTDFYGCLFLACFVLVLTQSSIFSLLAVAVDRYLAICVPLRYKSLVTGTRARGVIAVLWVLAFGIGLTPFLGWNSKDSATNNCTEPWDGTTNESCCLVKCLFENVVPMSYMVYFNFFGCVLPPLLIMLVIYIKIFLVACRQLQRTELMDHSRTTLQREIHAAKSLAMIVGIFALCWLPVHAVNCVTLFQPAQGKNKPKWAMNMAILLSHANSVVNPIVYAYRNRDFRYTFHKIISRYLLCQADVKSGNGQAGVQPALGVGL
Description: as §1, §2, §3, §4

Row | Compound | EC50 (adenosine A1 receptor) [nM] | EC50 (adenosine A2a receptor) [nM] | EC50 (adenosine A2b receptor) [nM]
1 | CNC(=O)c1cc(C(C)Sc2nc(N)c(C#N)c(-c3ccc(OCC(F)(F)F)cc3)c2C#N)ccn1 (racemic) [Example 56, rac-4-[1-({6-Amino-3,5-dicyano-4-[4-(2,2,2-trifluoroethoxy)phenyl]pyridin-2-yl}sulfanyl)ethyl]-N-methylpyridine-2-carboxamide] | 2.8 | ≥ 3000 | ≥ 3000
2 | CC(Sc1nc(N)c(C#N)c(-c2ccc(OCCO)cc2)c1C#N)c1cccc(C(N)=O)c1 (racemic) [Example 60, rac-3-[1-({6-Amino-3,5-dicyano-4-[4-(2-hydroxyethoxy)phenyl]pyridin-2-yl}sulfanyl)ethyl]-benzenecarboxamide] | 0.4 | ≥ 3000 | 1440
3 | CNC(=O)c1cccc(C(C)Sc2nc(N)c(C#N)c(-c3ccc(OCCO)cc3)c2C#N)c1 (racemic) [Example 62, rac-3-[1-({6-Amino-3,5-dicyano-4-[4-(2-hydroxyethoxy)phenyl]pyridin-2-yl}sulfanyl)ethyl]-N-methylbenzenecarboxamide] | 0.3 | ≥ 3000 | 262
4 | CNC(=O)c1cc(CSc2nc(N)c(C#N)c(-c3ccc(F)cc3)c2C#N)ccn1 [Example 2] | 0.3 |  | 
5 | CNC(=O)c1cc(CSc2nc(N)c(C#N)c(-c3ccc(OC)cc3)c2C#N)ccn1 [Example 3] | 0.2 | 425 | 
6 | CNC(=O)c1cc(CSc2nc(N)c(C#N)c(-c3ccc4c(c3)OCCO4)c2C#N)ccn1 [Example 6] | 0.06 |  | 71
7 | CNC(=O)c1cc(CSc2nc(N)c(C#N)c(-c3ccc(OCC(C)(C)O)cc3)c2C#N)ccn1 [Example 7] | 0.1 | 460 | 32
8 | N#Cc1c(N)nc(SCc2cccc(C(=O)O)c2)c(C#N)c1-c1ccc(F)cc1 [Example 14, 3-({[6-amino-3,5-dicyano-4-(4-fluorophenyl)pyridin-2-yl]sulfanyl}methyl)-benzenecarboxylic acid] | 3.5 |  | 
9 | N#Cc1cnc(SCc2cccc(C(=O)O)c2)c(C#N)c1-c1ccccc1 [Example 15] | 0.8 |  | 106
10 | CNC(=O)c1cc(COc2nc(N)c(C#N)c(-c3ccc(F)cc3)c2C#N)ccn1 [Example 21, 4-({[6-Amino-3,5-dicyano-4-(4-fluorophenyl)pyridin-2-yl]oxy}methyl)-N-methylpyridine-2-carboxamide] | 0.9 |  | 
11 | CCOc1ccc(-c2c(C#N)c(N)nc(SCc3ccnc(C(=O)NC)c3)c2C#N)cc1 [Example 26] | 0.2 | 65 | 243
12 | CNC(=O)c1cc(CSc2nc(N)c(C#N)c(-c3ccc(F)c(OC)c3)c2C#N)ccn1 [Example 27] | 0.3 |  | 
13 | CNC(=O)c1cc(CSc2nc(N)c(C#N)c(-c3ccc(NC)cc3)c2C#N)ccn1 [Example 28] | 0.4 | 1640 | 
14 | CNC(=O)c1cc(CSc2nc(N)c(C#N)c(-c3cccc(OCCO)c3)c2C#N)ccn1 [Example 29] | 0.5 |  | 
15 | CNC(=O)c1cc(CSc2ncc(C#N)c(-c3ccc(OCCO)cc3)c2C#N)ccn1 [Example 30] | 0.4 | 1110 | 122
16 | CNC(=O)c1cc(CSc2ncc(C#N)c(-c3ccc(OC)cc3)c2C#N)ccn1 [Example 31] | 1.6 | 707 | 708
17 | CNC(=O)c1cc(CSc2ncc(C#N)c(-c3ccccc3)c2C#N)ccn1 [Example 32] | 0.4 |  | 2120
18 | CS(=O)(=O)Nc1cccc(CSc2nc(N)c(C#N)c(-c3ccc(F)cc3)c2C#N)c1 [Example 37] | 0.7 | 1780 | 
19 | CS(=O)(=O)Nc1cccc(CSc2nc(N)c(C#N)c(-c3ccc(F)c(F)c3)c2C#N)c1 [Example 38] | 0.5 |  | 
20 | CNC(=O)c1cc(CSc2nc(N)c(C#N)c(-c3ccc(OC)cc3OC)c2C#N)ccn1 [Example 44] | 0.4 |  | 

Row | Compound | EC50 (adenosine A1 receptor) [nM] | EC50 (adenosine A2a receptor) [nM] | EC50 (adenosine A2b receptor) [nM]
21 | CNC(=O)c1cc(CSc2nc(N)c(C#N)c(-c3ccc(OS(=O)(=O)N(C)C)cc3)c2C#N)ccn1 [Example 46] | 0.04 | 781 | 425
22 | CCCOc1cccc(-c2c(C#N)c(N)nc(SCc3ccnc(C(=O)NC)c3)c2C#N)c1 [Example 49] | 0.3 |  | 
23 | CNC(=O)c1cc(CSc2nc(N)c(C#N)c(-c3ccc(F)c(C(F)(F)F)c3)c2C#N)ccn1 [Example 50] | 0.5 |  | 
24 | CNC(=O)c1cc(CSc2nc(N)c(C#N)c(-c3cc(F)cc(F)c3)c2C#N)ccn1 [Example 51] | 0.2 |  | 
25 | CNC(=O)c1cc(CSc2nc(N)c(C#N)c(-c3ccc(F)c(F)c3)c2C#N)ccn1 [Example 53] | 0.3 |  | 
26 | CNC(=O)c1cc(CSc2nc(N)c(C#N)c(-c3ccc(OCCN)cc3)c2C#N)ccn1 [Example 54, 4-[({6-Amino-4-[4-(2-aminoethoxy)phenyl]-3,5-dicyanopyridin-2-yl}sulfanyl)methyl]-N-methylpyridine-2-carboxamide trifluoroacetate] | 0.04 | 114 | 169
27 | CNC(=O)c1cc(CSc2nc(N)c(C#N)c(-c3ccc(OCCNC(=O)[C@H](C)N)cc3)c2C#N)ccn1 [Example 55, 4-{[(4-{4-[2-(L-Alanylamino)ethoxy]phenyl}-6-amino-3,5-dicyanopyridin-2-yl)sulfanyl]methyl}-N-methylpyridine-2-carboxamide trifluoroacetate] | 0.4 | 402 | 268
28 | N#Cc1cnc(SCc2cccc(C(N)=O)c2)c(C#N)c1-c1ccccc1 [Example 65, 3-{[(3,5-Dicyano-4-phenylpyridin-2-yl)sulfanyl]methyl}benzenecarboxamide] | 3.3 |  | 571
29 | N#Cc1cnc(SCc2cccc(C(=O)NCCO)c2)c(C#N)c1-c1ccccc1 [Example 66, 3-{[(3,5-Dicyano-4-phenylpyridin-2-yl)sulfanyl]methyl}-N-(2-hydroxyethyl)benzenecarboxamide] | 1.3 |  | 
30 | N#Cc1c(N)nc(OCc2ccnc(C(=O)NC3CC3)c2)c(C#N)c1-c1ccccc1 [Example 68] | 0.4 | 1740 | 440
31 | CNC(=O)c1cc(CSc2nc(N3CC(O)C3)c(C#N)c(-c3ccc(OC)cc3)c2C#N)ccn1 [Example 72] | 0.5 |  | 
32 | CNC(=O)c1cc(CSc2nc(N3CC(O)C3)c(C#N)c(-c3ccc(F)c(F)c3)c2C#N)ccn1 [Example 74] | 2.4 |  | 
33 | CNC(=O)c1cc(CSc2nc(N3CC[C@@H](O)C3)c(C#N)c(-c3ccc4c(c3)OCCO4)c2C#N)ccn1 [Example 82] | 0.2 | 1980 | 
34 | CNC(=O)c1cc(CSc2nc(NCCO)c(C#N)c(-c3ccc(OC)cc3)c2C#N)ccn1 [Example 84] | 0.4 |  | 
35 | N#Cc1c(SCc2ccnc(C(=O)NC3CC3)c2)nc(N2CCCC2)c(C#N)c1-c1ccccc1 [Example 85] | 0.5 | 1020 | 
36 | CNC(=O)c1cc(CSc2nc(NCC(O)C(F)(F)F)c(C#N)c(-c3ccccc3)c2C#N)ccn1 (stereo not shown) [Example 87] | 0.6 |  | 
37 | CNC(=O)c1cc(CSc2nc(NCCO)c(C#N)c(-c3ccccn3)c2C#N)ccn1 [Example 88] | 0.7 | 1980 | 
38 | CNC(=O)c1cc(COc2nc(N3CC(O)C3)c(C#N)c(-c3ccccc3)c2C#N)ccn1 [Example 93, 4-({[3,5-Dicyano-6-(3-hydroxyazetidin-1-yl)-4-phenylpyridin-2-yl]oxy}methyl)-N-methylpyridine-2-carboxamide] | 0.9 |  | 
39 | CNC(=O)c1cccc(CSc2nc(N3CC[C@@H](O)C3)c(C#N)c(-c3ccc(OCCO)cc3)c2C#N)c1 [Example 94, 3-[({3,5-Dicyano-4-[4-(2-hydroxyethoxy)phenyl]-6-[(3R)-3-hydroxypyrrolidin-1-yl]pyridin-2-yl}-sulfanyl)methyl]-N-methylbenzenecarboxamide] | 0.2 |  | 
40 | N#Cc1c(N)nc(SCc2cccc(C(=O)NC[C@@H](O)CO)c2)c(C#N)c1-c1ccc(F)cc1 [Example 96, 3-({[6-Amino-3,5-dicyano-4-(4-fluorophenyl)pyridin-2-yl]sulfanyl}methyl)-N-[(2R)-2,3-dihydroxypropyl]benzenecarboxamide] | 0.4 |  | 204
